| SMILES | melting point [°C] |
| --- | --- |
| COC(=O)CCCc1cc2nc(Cl)ccc2n1S(=O)(=O)c1ccc2ncsc2c1 | 55 |
| NC(=O)c1c(N)n(C2CCCC2)c2nc(Nc3ccc(N4CCOCC4)cc3)ncc2c1=O | 265 |
| Cn1ncnc1COc1nn2c(-c3ccccc3F)nncc2c1C(C)(C)C | 128 |
| Cc1[nH]c2ccnn2c(=O)c1CCO | 225 to 226 |
| CC1=NC(=NOC(=O)NC2CCC2)SC1(C)C | 94 to 96 |
| COc1ccccc1Cc1nc2n(c1Cc1ccccc1OC)CCS2 | 212 to 213 |
| COc1cc(NC(C)=O)c(OC)cc1C#N | 165 to 168 |
| CCOC(=O)CNC(=O)Oc1c(Cl)cc(Cl)c2cccnc12 | 120 |
| O=c1[nH]c2c(c(=O)[nH]1)N=CCN2CCCCN1CCC(OC(c2ccccc2)c2ccccc2)CC1 | 157 to 159 |
| CCC(=O)C(C)Oc1cc(C(=O)OC)ccc1OC (configuration not stated) | 63 to 65 |
| CCOC(=O)CNc1nc(Cl)ccc1NC(=O)c1ccc(Cl)cc1 | 157 to 158 |
| CCOc1cc2c(Nc3ccc(OC)cc3)c(CO)cnc2nc1C | 193 to 197 |
| COC(=O)c1ccc(C)c(NC(=O)c2cccc([N+](=O)[O-])c2)c1 | 208 to 209 |
| COc1ccc(Cn2c(=O)c3ccccc3n(CCCCN3CCC(OC(c4ccccc4)c4ccccc4)CC3)c2=O)cc1 | 99 to 100 |
| COc1ccc(NC(=O)Nc2ccc(Cl)c(Cl)c2)cc1NC(=S)Nc1ccc(Cl)c([N+](=O)[O-])c1 | 162 to 170 |
| CC(Cc1cc(I)c(Oc2ccc(O)cc2)c(I)c1)(NC=O)C(=O)O (configuration not stated) | 221 to 223 |
| COC(=O)C1=Cc2cc(-c3ccc(N4CCOCC4)cc3)ccc2SCC1 | 154 to 156 |
| CN1CCC(CC2CN=C(c3cc4cccc(N(C)S(=O)(=O)c5cccs5)c4[nH]3)S2)=N1 (configuration not stated) | 149 to 150 |
| COc1cc(C)ccc1Oc1ccc(Br)cc1O | 75 to 76 |
| CCCc1c(OCC(O)CSc2ccc(CC(=O)OC)c(Cl)c2Cl)ccc(C(C)=O)c1O (configuration not stated) | 85 to 88 |
| CCCCCCOc1ccc(CCCCCCCCC(=O)O)cc1 | 79 to 81 |
| CN1C(=O)COc2c(C(=O)NC3CN4CCC3CC4)cc(O)cc21 (configuration not stated) | 250 to 251 |
| CC(C(=O)O)c1ccccc1OS(C)(=O)=O (configuration not stated) | 94 to 96 |
| Cc1ccc(C(=O)Nc2c(NC(=O)CN3CCCC3)ccc3c2C(=O)c2ccccc2C3=O)cc1 | 193 to 194 |

| SMILES | melting point [°C] |
| --- | --- |
| Cc1ccc(C23CCC(Cl)(CC2)CC3)cc1 | 105 |
| CCn1nc(N)nc1NCCCOc1cccc(CN(C)C)c1 | 104 to 105 |
| COc1ccc(CCNS(=O)(=O)Cc2ccc3[nH]cc(CC#N)c3c2)cc1 | 134 to 135 |
| O=C(c1cc(-c2ccccc2)c(=O)n2c1-c1ccccc1C2)N1CCSCC1 | 266 to 268 |
| Cc1ncn(-c2nccc3[nH]c(=O)ccc23)n1 | > 300 |
| CNc1c(OC)cc(C(O)CS(C)(=O)=O)cc1OC (configuration not stated) | 141 to 142 |
| COc1ccc(Oc2nnn[nH]2)cc1 | 150 |
| CCOC(=O)c1ccc2[nH]cc(CCNC(=O)OC(C)(C)C)c2c1 | 170 to 171 |
| O=C1C=CC(=O)c2c1cccc2[N+](=O)[O-] | 161 |
| COc1ccccc1CNc1ccc2c(C(=N)NO)cccc2n1 | 161 |
| CC(C)OC(=O)Nc1cccc(-c2ccnc3c(C(=O)C4CCCC4)cnn23)c1 | 57 to 59 |
| CNC(=O)OCc1c(COC(=O)NC)c2n(c1C)-c1ccccc1C2 | 86 to 88 |
| Nc1ccc(Oc2ccc(C(=O)c3ccc(C#Cc4ccccc4)cc3)cc2)cc1 | 151 to 153 |
| CN(Cc1ccc2c(Br)c(OCC(=O)O)ccc2c1)C(=O)c1oc2ccccc2c1CCc1ccccc1 | 119 to 122 |
| Clc1ccc(Oc2cncc(Cl)n2)cc1 | 92 to 93 |
| CSc1ncc2c(=O)[nH]c(-c3ccccc3OCC(C)C)nc2n1 | 185 to 186 |
| Cc1oc(-c2ccc(C(F)(F)F)cc2)nc1COc1cccc(C=CC(C)n2oc(=O)[nH]c2=O)c1 (configuration not stated) | 104 to 105 |
| Cc1ccc(-c2nnc(N3CCC4(CC3)OCCO4)nc2-c2ccc(C)cc2)cc1 | 169 to 170 |
| CC(=O)Nc1cccc(-c2ccc3nc(-c4cccnc4N)n(-c4ccc(CNS(=O)(=O)c5cn(C)cn5)cc4)c3n2)c1 | 190 to 192 |
| CNC(=NC#N)NCCSc1nccc(NC(N)=NCC(F)(F)F)n1 | 218 to 221 |
| CC(=O)Nc1ccc(OCc2nc3ccccc3s2)cc1 | 168 to 170 |
| COc1cc(OC)c(-c2csc(NC(=O)c3cc4ccccc4[nH]3)n2)c(OC)n1 | 285 to 287 |
| O=S1(=O)c2cccc3cccc(c23)N1CCN1CC=C(c2c[nH]c3ccccc23)CC1 | 208 |

Next, values leading:

| melting point [°C] | SMILES |
| --- | --- |
| 170 to 172 | Nc1ccc(S(=O)c2ccc(Sc3ccc(Cl)c([N+](=O)[O-])c3)cc2)cc1[N+](=O)[O-] (configuration not stated) |
| 166 to 168 | N#CN=C(Nc1cccc(F)c1)NC(NC(=O)c1ccc(Cl)cc1)c1ccsc1 (configuration not stated) |
| 192 to 195 | CCOC(=O)CNC(=O)c1nc2ccc(Cl)nn2c1C |
| 73 to 75 | C=CC(=O)OCC1(COC(=O)C=C)c2ccccc2-c2ccccc21 |
| 95 to 97 | O=S(=O)(c1ccc(Br)cc1)N1C=CC=NC=C1 |
| 173 to 178 | O=[N+]([O-])c1ccc2c(c1)C(=NO)CCO2 |
| 255 to 256 | COC(=O)Cc1cc(=O)[nH]c2cc(F)ccc12 |
| 128 | COc1cc(Nc2nccc(NC3CCCCC3)n2)cc(OC)c1OC |
| 177 to 178 | Cc1ccc2c(c1)C(C1=CCN(C(C)O)CC1)CC2(O)c1ccc(F)cc1 (configuration not stated) |
| 131 to 133 | CSC1=Nc2ccc(Cl)cc2Cn2nnnc21 |
| 165 to 167 | O=S(=O)(NCCn1ccnc1)c1ccc(Br)cc1 |
| 215 to 216 | O=C1CCCC2=C1C(c1cccc([N+](=O)[O-])c1)C=C(C(F)(F)F)N2 (configuration not stated) |
| 97 to 98 | Oc1cc2ccsc2c(Cl)c1Cl |
| 125 | C=CCc1c(O)c(Cl)c(Cl)c2c1CC(C)(c1ccccc1)C2=O (configuration not stated) |
| 272 | COc1cc(C2Cc3ccccc3-c3nc(N)c4ccccc4c32)cc(OC)c1OC (configuration not stated) |
| 172 to 174 | O=C(O)c1cnc2sccc2c1Cl |
| 100 to 102 | CC(C)(C)OC(=O)N1CCC(CCCCN2C(=O)c3ccccc3C2=O)CC1 |
| 114 to 116 | CCCCCCCCNCC(O)C(O)C(O)C(O)CO (configuration not stated) |
| 246 to 248 | COc1cc(Cl)cc(C)c1Nc1nc2c(Cl)ccc(C(O)(C(C)(C)C)C(C)(C)C)c2n1C |
| 120 to 124 | CC(NC(=O)C(CS)Cc1ccccc1)C(=O)O (configuration not stated) |
| 141 | CS(=O)(=O)c1ccccc1C(=O)N1CCC(N2CCC(Oc3ccc(Cl)c(Cl)c3)CC2)CC1 |
| 106 to 107 | O=S(=O)(c1ccc(F)cc1)N1CCOCC1 |
| 171 to 173 | COc1cccc2c(Nc3ccccc3C)c(C(C)=O)cnc12 |
| 132 to 136 | CCC1(C)SC(NC)=NN1C(=O)C(C)(C)C (configuration not stated) |
| 172 | COc1ccc(Nc2nc(Cl)nc(NC3CC3)n2)cc1Cl |
| 184 to 185 | CN1CCC(CC(=O)N2c3ccccc3NC(=O)c3cscc32)CC1 |
| 62 to 63 | CCCNc1ncnc2c1ncn2CCCN1CCC(COc2ccccc2)CC1 |
| 150 to 152 | CC#Cc1cc(N(C)C)nc(Nc2ccccc2)n1 |

| melting point [°C] | SMILES |
| --- | --- |
| 164 to 166 | COc1ccc(-n2nc(C(F)(F)F)cc2-c2ccc(S(C)(=O)=O)cc2)cc1Br |
| 69 to 70 | CON(C)C(=O)c1cc(Cl)nc(Cl)c1 |
| 170 | COc1cccc(C2(Cl)C(=O)Nc3ccc(Cl)cc32)c1 (configuration not stated) |
| 251 to 254 | COc1cc(OCC(=O)O)c2c3c(n(Cc4ccccc4)c2c1)CCCC3C(N)=O (configuration not stated) |
| 78 to 80 | CCCCc1nc(-c2ccc(C(=O)NCCC(C)(C)C)cc2)no1 |
| 176 to 178 | Cc1ccc(-c2nc(C(F)(F)F)nn2-c2ccc(S(C)(=O)=O)cc2)cc1 |
| 160 to 161 | CCOCc1nc2c(N)nc3cccnc3c2n1C1(OC)CCCCC1 |
| 70 to 72 | CCOC(=O)c1cc2ccccc2nc1C |
| 143 | Cc1ccnc(NCCSCc2nc[nH]c2C)c1C(=O)O |
| 87 to 88 | CCOC(=O)C(C)(C)Oc1ccc(CCc2cc(-c3ccc(C(F)(F)F)cc3)oc2C)cc1 |
| 250 to 253 | CSc1ccc(/C=C/c2ccc(C(=O)O)cn2)cc1 |
| 98 to 99 | CNCCC(O)(COc1ccccc1)c1ccccc1 (configuration not stated) |
| 194 | Cc1ccc(C)c(C(=O)c2c(S(C)(=O)=O)nn(-c3c(Cl)cc(C(F)(F)F)cc3Cl)c2N)c1 |
| 128 to 129 | CCOC(=O)Cn1c(=O)c2cc(CBr)ccc2n(Cc2ccc(Cl)c(Cl)c2)c1=O |
| 142 | CC(C)n1cnc2c(Nc3cccc(F)c3)nc(NCCO)nc21 |
| 132 to 133 | N#CC1(c2ccc(Cl)cc2)C2CC3CC(C2)CC1C3 (configuration not stated) |
| 285 to 287 | Cn1cnc2c1c(=O)n(CCCN1CCN(c3ccc(Cl)nn3)CC1)c(=O)n2C |
| 140 to 142 | Cc1cc(S(=O)(=O)Nc2cccc3ccccc23)c2c(C)ccc(C(C)C)cc1-2 |
| 181 to 182 | O=C(Nc1ccc2nc(CN3CCCCC3)ccc2c1)c1ccc(-c2ccc(F)cc2F)cc1 |
| 241 | CC1(C)CCC(C)(C)c2c(OCc3ccc(F)cc3)cc(C(=O)/C=C/c3ccc(C(=O)O)cc3)cc21 |
| 224 to 225 | O=C(NCc1ccc(Cl)cc1)c1cn2c3c(cc(C#CCO)cc3c1=O)CC2CO (configuration not stated) |
| 183 to 184 | Cc1nnc(-c2ccc3occ(-c4ccc(S(=O)Cc5ccccc5)cc4)c3c2)o1 (configuration not stated) |
| 89 | CC(=O)CC(=O)Nc1ccc(C)cc1C |
| 98 to 100 | COc1ccc2c(c1)CCC1C2CCC2(C)C(=NN(C)C)CCC12 (configuration not stated) |
| 216 to 217 | O=c1[nH]c(=O)n(-c2ccccc2)n1-c1ccccc1 |
| 155 to 168 | O=C1Nc2ccc([N+](=O)[O-])cc2C12OCCCO2 |
| 190 to 193 | COc1c(Cl)ccc(-c2cc(N)c(Cl)c(C(=O)NOC(C)C)n2)c1F |

— a melting point compilation (Tetko et al.; mined from patent text by program, amines drawn as free bases though some values may be those of a salt)
